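Grown in 96-well plates, cells were treated for 48 hours with each compound at five concentrations. Insufficient inhibition: endpoint recorded as highest concentration tested. Abbreviation: GI50, concentration required for 50% inhibition of growth.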 Calls of active or inactive are those of the source. Cut-off read from the data, not from the text of the source: active = GI50 up to about 1.1 µM and inactive = higher.
Key:
Test in all cases: NCI tumour cell line growth inhibition, 48 h
A549 = system: A549
ACHN = system: ACHN
COLO 205 = system: COLO 205
EKVX = system: EKVX
HCC 2998 = system: HCC 2998
IGROV-1 = system: IGROV-1
M14 = system: M14
OVCAR-3 = system: OVCAR-3
RPMI-8226 = system: RPMI-8226
SF-539 = system: SF-539
SK-MEL-28 = system: SK-MEL-28
SK-MEL-5 = system: SK-MEL-5
SN12C = system: SN12C
SNB-75 = system: SNB-75
SW-620 = system: SW-620
UACC-62 = system: UACC-62
RXF 393 = system: RXF 393

Measured: GI50

COc1cc2cnc3c4cc(OC(C)C)c(OC)cc4ccc3c2cc1OC
inactive: A549 > 100 µM | ACHN > 100 µM | COLO 205 > 100 µM | EKVX > 100 µM | HCC 2998 > 100 µM | IGROV-1 > 100 µM | M14 > 100 µM | OVCAR-3 > 100 µM | RPMI-8226 > 100 µM | SF-539 > 100 µM | SK-MEL-28 > 100 µM | SK-MEL-5 > 100 µM | SN12C > 100 µM | SNB-75 > 100 µM | SW-620 > 100 µM | UACC-62 > 100 µM

Cc1nc(Nc2ccc([N+](=O)[O-])cc2)sc1C(/C=C/c1ccc(N(C)C)cc1)=N/NC(=O)c1ccccc1
inactive: A549 46.5 µM | ACHN 39.6 µM | COLO 205 > 100 µM | EKVX 41.2 µM | HCC 2998 41.3 µM | IGROV-1 51.3 µM | M14 48.8 µM | OVCAR-3 > 100 µM | RXF 393 58.6 µM | SF-539 42.9 µM | SK-MEL-28 > 100 µM | SN12C 59.3 µM | SNB-75 > 100 µM | SW-620 45.6 µM | UACC-62 4.84 µM

COc1cc(C=O)c(-c2cc3c(cc2C=O)OCO3)c(OC)c1OC
inactive: A549 93.8 µM | ACHN > 290 µM | COLO 205 92.5 µM | EKVX 178 µM | HCC 2998 210 µM | IGROV-1 143 µM | OVCAR-3 56.6 µM | RPMI-8226 96.6 µM | RXF 393 63.5 µM | SF-539 81.8 µM | SK-MEL-28 144 µM | SK-MEL-5 94.6 µM | SN12C 85.9 µM | SW-620 94.6 µM | UACC-62 90.6 µM

CCCCCCCCOCC(O)COC (centres undefined)
inactive: A549 > 100 µM | ACHN > 100 µM | COLO 205 > 100 µM | HCC 2998 > 100 µM | IGROV-1 > 100 µM | M14 > 100 µM | OVCAR-3 94.6 µM | RPMI-8226 > 100 µM | SK-MEL-28 > 100 µM | SK-MEL-5 > 100 µM | SN12C > 100 µM | SW-620 > 100 µM | UACC-62 > 100 µM

COc1cc(C)c(CC/C(C)=C/Cc2cc(O)ccc2O)c(C)c1C [PANICEIN A HYDROQUINONE]
inactive: A549 > 25 µM | ACHN > 25 µM | COLO 205 > 25 µM | EKVX > 25 µM | HCC 2998 > 25 µM | IGROV-1 > 25 µM | M14 > 25 µM | OVCAR-3 > 25 µM | RPMI-8226 > 25 µM | RXF 393 > 25 µM | SF-539 > 25 µM | SK-MEL-28 > 25 µM | SK-MEL-5 > 25 µM | SN12C > 25 µM | SNB-75 > 25 µM | SW-620 > 25 µM

O=C(/C(=C/c1ccc(Cl)cc1)c1ccccc1)c1ccccc1
inactive: ACHN 19.7 µM | COLO 205 18.8 µM | EKVX 26.5 µM | HCC 2998 16.9 µM | IGROV-1 18.7 µM | M14 16.3 µM | RPMI-8226 18.5 µM | SF-539 17.4 µM | SK-MEL-28 16.9 µM | SN12C 16.7 µM | SNB-75 22.8 µM | SW-620 17.4 µM | UACC-62 15.6 µM

CCNC(=O)COc1ccc(Cl)c(C)c1
inactive: A549 > 100 µM | ACHN > 100 µM | COLO 205 > 100 µM | HCC 2998 > 100 µM | IGROV-1 > 100 µM | M14 > 100 µM | OVCAR-3 > 100 µM | RPMI-8226 > 100 µM | RXF 393 > 100 µM | SF-539 > 100 µM | SK-MEL-28 > 100 µM | SK-MEL-5 > 100 µM | SN12C > 100 µM | SNB-75 86.1 µM | SW-620 > 100 µM | UACC-62 > 100 µM

CCC1(C(=O)OC)CCc2c(OC)ccc(OC)c2C1=O (centres undefined)
inactive: A549 > 100 µM | ACHN > 100 µM | COLO 205 > 100 µM | EKVX > 100 µM | HCC 2998 > 100 µM | IGROV-1 > 100 µM | M14 > 100 µM | OVCAR-3 > 100 µM | RPMI-8226 > 100 µM | SF-539 > 100 µM | SK-MEL-28 > 100 µM | SK-MEL-5 > 100 µM | SN12C > 100 µM | SW-620 > 100 µM | UACC-62 > 100 µM

Cn1ncc2ccc3[nH]c4ccccc4c(=O)c3c21
inactive: A549 20.2 µM | ACHN 22.6 µM | COLO 205 26.4 µM | EKVX 42 µM | HCC 2998 31.4 µM | IGROV-1 39.9 µM | M14 39.2 µM | OVCAR-3 37.3 µM | RPMI-8226 22.5 µM | RXF 393 14.7 µM | SK-MEL-28 36.3 µM | SK-MEL-5 17.5 µM | SN12C 28.2 µM | SNB-75 19.9 µM | SW-620 26.2 µM | UACC-62 16.9 µM

CC(CCCOC(c1ccccc1)(c1ccccc1)c1ccccc1)OC(=O)Nc1ccccc1 (centres undefined)
inactive: A549 11.1 µM | ACHN 13.6 µM | COLO 205 18.2 µM | HCC 2998 14.1 µM | IGROV-1 16.4 µM | M14 14.2 µM | OVCAR-3 14 µM | RPMI-8226 15 µM | RXF 393 12.8 µM | SF-539 17.8 µM | SK-MEL-28 15.3 µM | SK-MEL-5 14.1 µM | SN12C 12 µM | SNB-75 14.5 µM | SW-620 14.4 µM | UACC-62 12.8 µM

C/C(CCn1[nH]c(=O)ccc1=O)=N\NC(=O)C(N)=O
inactive: A549 > 100 µM | ACHN > 100 µM | COLO 205 > 100 µM | EKVX > 100 µM | HCC 2998 > 100 µM | IGROV-1 > 100 µM | M14 > 100 µM | OVCAR-3 > 100 µM | RXF 393 > 100 µM | SF-539 > 100 µM | SK-MEL-28 > 100 µM | SK-MEL-5 > 100 µM | SN12C > 100 µM | SNB-75 > 100 µM | SW-620 > 100 µM | UACC-62 > 100 µM

COc1ccc2c(c1)C(=O)C1CC(=O)CCC21 (centres undefined)
inactive: A549 > 100 µM | ACHN > 100 µM | COLO 205 > 100 µM | EKVX > 100 µM | HCC 2998 > 100 µM | IGROV-1 > 100 µM | M14 > 100 µM | OVCAR-3 > 100 µM | RPMI-8226 > 100 µM | SF-539 > 100 µM | SK-MEL-28 > 100 µM | SK-MEL-5 > 100 µM | SN12C > 100 µM | SNB-75 > 100 µM | SW-620 > 100 µM | UACC-62 > 100 µM

COc1ccc(/C(C#N)=C(/N)SCc2ccccc2Cl)cc1
inactive: A549 26.4 µM | ACHN > 10 µM | COLO 205 20.3 µM | EKVX 21.2 µM | HCC 2998 17 µM | IGROV-1 29.2 µM | M14 14.2 µM | OVCAR-3 11.1 µM | RPMI-8226 22.8 µM | RXF 393 16.6 µM | SF-539 17.4 µM | SK-MEL-28 17.9 µM | SN12C 24.7 µM | SNB-75 23.2 µM | SW-620 16.1 µM | UACC-62 11.9 µM

O=C(O)C1C2CC3CC2CC31 (centres undefined)
inactive: A549 > 100 µM | ACHN > 100 µM | COLO 205 > 100 µM | EKVX > 100 µM | IGROV-1 > 100 µM | M14 > 100 µM | OVCAR-3 > 100 µM | RPMI-8226 > 100 µM | RXF 393 > 100 µM | SF-539 > 100 µM | SK-MEL-28 > 100 µM | SK-MEL-5 > 100 µM | SN12C > 100 µM | SNB-75 > 100 µM | SW-620 > 100 µM | UACC-62 > 100 µM

N#CC1CC2(C1)OCCS2 (centres undefined)
inactive: A549 > 100 µM | ACHN > 100 µM | COLO 205 > 100 µM | EKVX > 100 µM | HCC 2998 > 100 µM | IGROV-1 > 100 µM | M14 > 100 µM | OVCAR-3 > 100 µM | RPMI-8226 > 100 µM | RXF 393 > 100 µM | SF-539 > 100 µM | SK-MEL-28 > 100 µM | SN12C > 100 µM | SNB-75 32.3 µM | SW-620 > 100 µM | UACC-62 > 100 µM

O=C(O)c1c([N+](=O)[O-])cc(C(F)(F)F)cc1[N+](=O)[O-]
inactive: A549 > 100 µM | ACHN > 100 µM | COLO 205 > 100 µM | EKVX > 100 µM | IGROV-1 > 100 µM | M14 > 100 µM | OVCAR-3 > 100 µM | RPMI-8226 > 100 µM | RXF 393 > 100 µM | SF-539 > 100 µM | SK-MEL-28 > 100 µM | SK-MEL-5 > 100 µM | SN12C > 100 µM | SW-620 > 100 µM

CC(C)(O)[C@@H]1CC[C@@]2(C)CCCC(O)C2(O)C1 (some centres undefined)
inactive: A549 > 100 µM | ACHN > 100 µM | COLO 205 > 100 µM | HCC 2998 > 100 µM | IGROV-1 > 100 µM | M14 > 100 µM | OVCAR-3 > 100 µM | RPMI-8226 > 100 µM | SF-539 > 100 µM | SK-MEL-28 > 100 µM | SK-MEL-5 > 100 µM | SN12C > 100 µM | SNB-75 > 100 µM | SW-620 > 100 µM | UACC-62 > 100 µM

CC(=O)N1[C@H](C(=O)O)CS[C@H]1c1ccc(F)cc1
inactive: A549 > 100 µM | ACHN > 100 µM | COLO 205 > 100 µM | HCC 2998 > 100 µM | IGROV-1 > 100 µM | M14 > 100 µM | OVCAR-3 > 100 µM | RXF 393 > 100 µM | SF-539 > 100 µM | SK-MEL-28 > 100 µM | SK-MEL-5 > 100 µM | SN12C > 100 µM | SNB-75 > 100 µM | SW-620 > 100 µM

From ChEMBL document CHEMBL1201862, “PubChem BioAssay data set” (2004)
